Assay results as given in ChEMBL document CHEMBL1135751, “A trypanocidal phenazine derived from beta-lapachone” (2002).

Tested on: Trypanosoma cruzi
Assay: Trypanocidal effect on bloodstream trypomastigotes of Trypanosoma cruzi; ED50/24h
Type: functional

Work on `CC1(C)CCc2c(c3ccccc3c3nc4cc(Nc5ccccc5)/c(=N/c5ccccc5)cc-4n(-c4ccccc4)c23)O1` yielded an ED50 of 61.3 µM.
`CN(C)c1ccc(C(=C2C=CC(=[N+](C)C)C=C2)c2ccc(N(C)C)cc2)cc1` gave an ED50 of 536 µM.
